# Laboratory results as given in the supplement of paper PMC10307832.
# Key:
# Assay in all cases: relative viability (nuclei count vs DMSO), 5 days (fraction); higher = more cells survive
# NCI-H520 = test system: NCI-H520
# Summary of the method: (§1)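 Relative viability equals treated-well nuclei counts divided by vehicle-well nuclei counts. Counts came from 4× images of lung cancer cell lines grown in 1536-well plates for 5 days after pin-tool dosing on the day after seeding. Dosing used one drug alone or a fixed anchor-drug dose plus five library-drug doses (not always all listed) in √10 steps, and values are medians of duplicate plates.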
# H3255 = test system: H3255
# Summary of the method: as §1
# ChaGo-K-1 = test system: ChaGo-K-1
# Summary of the method: as §1
# NCI-H661 = test system: NCI-H661
# Summary of the method: as §1
# NCI-H650 = test system: NCI-H650
# Summary of the method: as §1
# NCI-H1915 = test system: NCI-H1915
# Summary of the method: as §1
# HCC-827 = test system: HCC-827
# Summary of the method: as §1
# NCI-H2405 = test system: NCI-H2405
# Summary of the method: as §1
# HCC-78 = test system: HCC-78
# Summary of the method: as §1
# COR-L 105 = test system: COR-L 105
# Summary of the method: as §1
# LCLC-97TM1 = test system: LCLC-97TM1
# Summary of the method: as §1
# NCI-H2126 = test system: NCI-H2126
# Summary of the method: as §1
# PC-14 = test system: PC-14
# Summary of the method: as §1
# NCI-H1666 = test system: NCI-H1666
# Summary of the method: as §1
# LC-2-ad = test system: LC-2-ad
# Summary of the method: as §1
# NCI-H647 = test system: NCI-H647
# Summary of the method: as §1
# NCI-H2347 = test system: NCI-H2347
# Summary of the method: as §1
# NCI-H2087 = test system: NCI-H2087
# Summary of the method: as §1
# 201T = test system: 201T
# Summary of the method: as §1
# EPLC-272H = test system: EPLC-272H
# Summary of the method: as §1
# RERF-LC-KJ = test system: RERF-LC-KJ
# Summary of the method: as §1
# NCI-H23 = test system: NCI-H23
# Summary of the method: as §1
structure (smiles),measurement,setting,value
CC(=O)O[C@@]12CO[C@@H]1C[C@H](O)[C@@]1(C)C(=O)[C@H](O)C3=C(C)[C@@H](OC(=O)[C@H](O)[C@@H](NC(=O)OC(C)(C)C)c4ccccc4)C[C@@](O)([C@@H](OC(=O)c4ccccc4)[C@H]21)C3(C)C [Docetaxel] + O=C(c1cc(Cc2n[nH]c(=O)c3ccccc23)ccc1F)N1CCN(C(=O)C2CC2)CC1 [Olaparib] (partner 8 µM),relative viability,NCI-H520; first compound 0.0002 µM,0.31
same,relative viability,NCI-H520; first compound 0.000632 µM,0.286
same,relative viability,NCI-H520; first compound 0.002 µM,0.22
same,relative viability,NCI-H520; first compound 0.006325 µM,0.165
same,relative viability,NCI-H520; first compound 0.02 µM,0.132
same,relative viability,H3255; first compound 0.0002 µM,0.59
same,relative viability,H3255; first compound 0.000632 µM,0.555
same,relative viability,H3255; first compound 0.002 µM,0.439
same,relative viability,H3255; first compound 0.006325 µM,0.336
same,relative viability,H3255; first compound 0.02 µM,0.33
same,relative viability,ChaGo-K-1; first compound 0.0002 µM,0.384
same,relative viability,ChaGo-K-1; first compound 0.000632 µM,0.335
same,relative viability,ChaGo-K-1; first compound 0.002 µM,0.285
same,relative viability,ChaGo-K-1; first compound 0.006325 µM,0.3
same,relative viability,ChaGo-K-1; first compound 0.02 µM,0.181
same,relative viability,NCI-H661; first compound 0.0002 µM,0.738
same,relative viability,NCI-H661; first compound 0.000632 µM,0.701
same,relative viability,NCI-H661; first compound 0.002 µM,0.592
same,relative viability,NCI-H661; first compound 0.006325 µM,0.434
same,relative viability,NCI-H661; first compound 0.02 µM,0.406
same,relative viability,NCI-H650; first compound 0.0002 µM,0.361
same,relative viability,NCI-H650; first compound 0.000632 µM,0.292
same,relative viability,NCI-H650; first compound 0.002 µM,0.192
same,relative viability,NCI-H650; first compound 0.006325 µM,0.189
same,relative viability,NCI-H650; first compound 0.02 µM,0.148
same,relative viability,NCI-H1915; first compound 0.0002 µM,0.278
same,relative viability,NCI-H1915; first compound 0.000632 µM,0.256
same,relative viability,NCI-H1915; first compound 0.002 µM,0.179
same,relative viability,NCI-H1915; first compound 0.006325 µM,0.144
same,relative viability,NCI-H1915; first compound 0.02 µM,0.0963
same,relative viability,HCC-827; first compound 0.0002 µM,0.626
same,relative viability,HCC-827; first compound 0.000632 µM,0.662
same,relative viability,HCC-827; first compound 0.002 µM,0.329
same,relative viability,HCC-827; first compound 0.006325 µM,0.287
same,relative viability,HCC-827; first compound 0.02 µM,0.23
same,relative viability,NCI-H2405; first compound 0.0002 µM,0.875
same,relative viability,NCI-H2405; first compound 0.000632 µM,0.712
same,relative viability,NCI-H2405; first compound 0.002 µM,0.557
same,relative viability,NCI-H2405; first compound 0.006325 µM,0.419
same,relative viability,NCI-H2405; first compound 0.02 µM,0.329
same,relative viability,HCC-78; first compound 0.0002 µM,0.859
same,relative viability,HCC-78; first compound 0.000632 µM,0.777
same,relative viability,HCC-78; first compound 0.002 µM,0.41
same,relative viability,HCC-78; first compound 0.006325 µM,0.329
same,relative viability,HCC-78; first compound 0.02 µM,0.338
same,relative viability,COR-L 105; first compound 0.0002 µM,0.8
same,relative viability,COR-L 105; first compound 0.000632 µM,0.591
same,relative viability,COR-L 105; first compound 0.002 µM,0.461
same,relative viability,COR-L 105; first compound 0.006325 µM,0.539
same,relative viability,COR-L 105; first compound 0.02 µM,0.331
same,relative viability,LCLC-97TM1; first compound 0.0002 µM,0.467
same,relative viability,LCLC-97TM1; first compound 0.000632 µM,0.272
same,relative viability,LCLC-97TM1; first compound 0.002 µM,0.107
same,relative viability,LCLC-97TM1; first compound 0.006325 µM,0.0877
same,relative viability,LCLC-97TM1; first compound 0.02 µM,0.0634
same,relative viability,NCI-H2126; first compound 0.0002 µM,0.887
same,relative viability,NCI-H2126; first compound 0.000632 µM,0.861
same,relative viability,NCI-H2126; first compound 0.002 µM,0.615
same,relative viability,NCI-H2126; first compound 0.006325 µM,0.348
same,relative viability,PC-14; first compound 0.0002 µM,0.276
same,relative viability,PC-14; first compound 0.000632 µM,0.164
same,relative viability,PC-14; first compound 0.002 µM,0.0642
same,relative viability,PC-14; first compound 0.006325 µM,0.0438
same,relative viability,PC-14; first compound 0.02 µM,0.0274
same,relative viability,NCI-H1666; first compound 0.0002 µM,0.786
same,relative viability,NCI-H1666; first compound 0.000632 µM,0.673
same,relative viability,NCI-H1666; first compound 0.002 µM,0.721
same,relative viability,NCI-H1666; first compound 0.006325 µM,0.703
same,relative viability,NCI-H1666; first compound 0.02 µM,0.573
same,relative viability,LC-2-ad; first compound 0.0002 µM,0.623
same,relative viability,LC-2-ad; first compound 0.000632 µM,0.411
same,relative viability,LC-2-ad; first compound 0.002 µM,0.304
same,relative viability,LC-2-ad; first compound 0.02 µM,0.191
same,relative viability,NCI-H647; first compound 0.0002 µM,0.449
same,relative viability,NCI-H647; first compound 0.000632 µM,0.132
same,relative viability,NCI-H647; first compound 0.002 µM,0.0799
same,relative viability,NCI-H647; first compound 0.006325 µM,0.0764
same,relative viability,NCI-H647; first compound 0.02 µM,0.0432
same,relative viability,NCI-H2347; first compound 0.0002 µM,0.613
same,relative viability,NCI-H2347; first compound 0.000632 µM,0.566
same,relative viability,NCI-H2347; first compound 0.002 µM,0.557
same,relative viability,NCI-H2347; first compound 0.006325 µM,0.505
same,relative viability,NCI-H2347; first compound 0.02 µM,0.388
same,relative viability,NCI-H2087; first compound 0.0002 µM,0.586
same,relative viability,NCI-H2087; first compound 0.000632 µM,0.3
same,relative viability,NCI-H2087; first compound 0.002 µM,0.243
same,relative viability,NCI-H2087; first compound 0.006325 µM,0.125
same,relative viability,NCI-H2087; first compound 0.02 µM,0.0944
same,relative viability,201T; first compound 0.0002 µM,0.821
same,relative viability,201T; first compound 0.000632 µM,0.774
same,relative viability,201T; first compound 0.002 µM,0.637
same,relative viability,201T; first compound 0.006325 µM,0.432
same,relative viability,201T; first compound 0.02 µM,0.267
same,relative viability,EPLC-272H; first compound 0.0002 µM,0.527
same,relative viability,EPLC-272H; first compound 0.000632 µM,0.339
same,relative viability,EPLC-272H; first compound 0.002 µM,0.0991
same,relative viability,EPLC-272H; first compound 0.006325 µM,0.0687
same,relative viability,EPLC-272H; first compound 0.02 µM,0.0452
same,relative viability,RERF-LC-KJ; first compound 0.0002 µM,0.793
same,relative viability,RERF-LC-KJ; first compound 0.000632 µM,0.608
same,relative viability,RERF-LC-KJ; first compound 0.002 µM,0.281
same,relative viability,RERF-LC-KJ; first compound 0.02 µM,0.172
same,relative viability,NCI-H23; first compound 0.0002 µM,0.366
same,relative viability,NCI-H23; first compound 0.002 µM,0.221
same,relative viability,NCI-H23; first compound 0.006325 µM,0.164
same,relative viability,NCI-H23; first compound 0.02 µM,0.105
